Results published in the supplement of paper PMC11061612.

What was measured:
[1] = test system: OVKATE (Ovarian Carcinoma); test: combination Emax (second highest fraction inhibited in the dose matrix, 72 h); higher = more inhibition; extreme values may be limits of the assay
Method in brief: (§1)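 Cell lines in DMEM/F12 or RPMI with 10% FBS were plated in 1536-well plates, held 24 hours at 37°C, 5% CO2, then given two-drug dose matrices for 72 hours (DMSO typically 0.2%). Viability was read by CellTiter-Glo 2.0 luminescence and scaled as inhibition from 0 (vehicle wells) to 1 (blank wells). Combination Emax is the second-highest inhibition in the matrix; Bliss excess is observed combination effect minus expected EA + EB − EA·EB, EA and EB being single-agent effects.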

[2] = test system: HT-3 (Cervical Carcinoma); test: as above
Method in brief: as §1

[3] = test system: CAL-85-1 (Breast Carcinoma); test: as above
Method in brief: as §1

[4] = test system: NCI-H1648 (Lung Adenocarcinoma); test: as above
Method in brief: as §1

[5] = test system: SW1463 (Colorectal Carcinoma); test: as above
Method in brief: as §1

[6] = test system: SNU-1 (Gastric Carcinoma); test: as above
Method in brief: as §1

[7] = test system: MRK-nu-1 (Breast Carcinoma); test: as above
Method in brief: as §1

[8] = test system: SBC-3 (Small Cell Lung Carcinoma); test: as above
Method in brief: as §1

[9] = test system: JJN-3 (Plasma Cell Myeloma); test: as above
Method in brief: as §1

[10] = test system: NCI-H1048 (Small Cell Lung Carcinoma); test: as above
Method in brief: as §1

[11] = test system: NCI-H2023 (Non-Small Cell Lung Carcinoma); test: as above
Method in brief: as §1

MG-63 (Osteosarcoma) = test: as above
Method in brief: as §1

A375 (Melanoma) = test: as above
Method in brief: as §1

[12] = test system: JURL-MK1 (Chronic Myelogenous Leukemia); test: Bliss excess, mean over the matrix (fraction); higher = more synergy
Method in brief: as §1

SK-MEL-24 (Melanoma) = test: as above
Method in brief: as §1

[13] = test system: NCI-H1648 (Lung Adenocarcinoma); test: as above
Method in brief: as §1

[14] = test system: SNU-1 (Gastric Carcinoma); test: as above
Method in brief: as §1

[15] = test system: RPMI-8402 (T-Lymphoblastic Leukemia); test: as above
Method in brief: as §1

[16] = test system: NCI-H1975 (Lung Adenocarcinoma); test: as above
Method in brief: as §1

[17] = test system: NCI-H2009 (Lung Adenocarcinoma); test: as above
Method in brief: as §1
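Wherever Bliss excess, mean over the matrix is given: after 72 h of two-drug dosing.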

| Structure (SMILES) | combination Emax [1] | combination Emax [2] | combination Emax [3] | combination Emax [4] | combination Emax [5] | combination Emax [6] | combination Emax [7] | combination Emax [8] | combination Emax [9] | combination Emax [10] | combination Emax [11] | combination Emax (MG-63 (Osteosarcoma)) | combination Emax (A375 (Melanoma)) | Bliss excess [12] | Bliss excess (SK-MEL-24 (Melanoma)) | Bliss excess [13] | Bliss excess [14] | Bliss excess [15] | Bliss excess [16] | Bliss excess [17] |
| --- | --- | --- | --- | --- | --- | --- | --- | --- | --- | --- | --- | --- | --- | --- | --- | --- | --- | --- | --- | --- |
| Cc1c2c(nn1C)CSCc1cc(n(C)n1)CSc1cc(c3ccccc3c1)OCCCc1c(C(=O)O)n(C)c3c-2c(Cl)ccc13 [AZD5991] + CC1(C)CCC(CN2CCN(c3ccc(C(=O)NS(=O)(=O)c4ccc(NCC5CCOCC5)c([N+](=O)[O-])c4)c(Oc4cnc5[nH]ccc5c4)c3)CC2)=C(c2ccc(Cl)cc2)C1 [Venetoclax] (first compound max 1 µM, 7x7, partner max 1 µM) | 0.147 | 0.597 | 0.122 | 0.748 | 0.131 | 0.933 | 1 | 0.69 | 1 | 0.954 | 0.205 | 0.199 | 0.307 | -0.0133 | -0.0426 | -0.0482 | 0.136 | 0.035 | -0.0053 | -0.0158 |
| Cc1c2c(nn1C)CSCc1cc(n(C)n1)CSc1cc(c3ccccc3c1)OCCCc1c(C(=O)O)n(C)c3c-2c(Cl)ccc13 [AZD5991] + CCN(CCO)CCCOc1ccc2c(Nc3cc(CC(=O)Nc4cccc(F)c4)[nH]n3)ncnc2c1 [AZD2811] (first compound max 1 µM, 7x7, partner max 1 µM) | 0.253 | 0.907 | 0.267 | 0.748 | 0.268 | 0.551 | 1 | 0.531 | 1 | 1 | 0.333 | 0.232 | 0.746 | 0.098 | 0.0258 | 0.0051 | 0.0586 | 0.0412 | 0.0047 | 0.071 |
| Cc1c2c(nn1C)CSCc1cc(n(C)n1)CSc1cc(c3ccccc3c1)OCCCc1c(C(=O)O)n(C)c3c-2c(Cl)ccc13 [AZD5991] + CN(C)CCCOc1ccc(-c2ccc3ncc4c(c3c2)n(C2CCOCC2)c(=O)n4C)cn1 [AZD0156] (first compound max 1 µM, 7x7, partner max 1 µM) | 0.247 | 0.479 | 0.206 | 0.701 | 0.204 | 0.584 | 1 | 0.292 | 1 | 0.984 | 0.426 | 0.251 | 0.457 | -0.0403 | -0.0328 | -0.0433 | -0.0144 | -0.0536 | -0.0241 | -0.0204 |
| Cc1c2c(nn1C)CSCc1cc(n(C)n1)CSc1cc(c3ccccc3c1)OCCCc1c(C(=O)O)n(C)c3c-2c(Cl)ccc13 [AZD5991] + C[C@@H]1COCCN1C2=NC(=NC(=C2)C3(CC3)[S@](=N)(=O)C)C4=C5C=CNC5=NC=C4 [AZD6738] (first compound max 1 µM, 7x7, partner max 10 µM) | 0.421 | 0.907 | 0.584 | 0.865 | 0.506 | 0.794 | 1 | 0.746 | 1 | 1 | 0.814 | 0.491 | 0.893 | 0.0056 | 0.0025 | 0.0052 | 0.035 | -0.0027 | 0.0671 | 0.0199 |
| Cc1c2c(nn1C)CSCc1cc(n(C)n1)CSc1cc(c3ccccc3c1)OCCCc1c(C(=O)O)n(C)c3c-2c(Cl)ccc13 [AZD5991] + C[C@@H](Nc1cc(F)cc(F)c1)c1cc(C(=O)N(C)C)cc2c(=O)cc(N3CCOCC3)oc12 [AZD8186] (first compound max 1 µM, 7x7, partner max 3 µM) | 0.353 | 0.482 | 0.243 | 0.844 | 0.188 | 0.652 | 1 | 0.376 | 1 | 0.965 | 0.377 | 0.357 | 0.289 | -0.0112 | -0.0081 | -0.0508 | 0.002 | 0.0272 | -0.0203 | -0.0076 |
| Cc1c2c(nn1C)CSCc1cc(n(C)n1)CSc1cc(c3ccccc3c1)OCCCc1c(C(=O)O)n(C)c3c-2c(Cl)ccc13 [AZD5991] + Cn1cnc2c(F)c(Nc3ccc(Br)cc3Cl)c(C(=O)NOCCO)cc21 [Selumetinib] (first compound max 1 µM, 7x7, partner max 3 µM) | 0.265 | 0.789 | 0.584 | 0.844 | 0.547 | 0.605 | 1 | 0.225 | 1 | 0.971 | 0.294 | 0.251 | 0.895 | 0.0259 | 0.0006 | 0.0396 | 0.0926 | 0.0125 | 0.0208 | 0.0176 |
| NC1(C(=O)N[C@@H](CCO)c2ccc(Cl)cc2)CCN(c2ncnc3[nH]ccc23)CC1 [Capivasertib] + CC(=O)c1c(C)c2cnc(Nc3ccc(N4CCNCC4)cn3)nc2n(C2CCCC2)c1=O [Palbociclib] (first compound max 10 µM, 7x7, partner max 10 µM) | 0.265 | 0.2 | 0.203 | 0.567 | 0.502 | 0.621 | 0.382 | 0.67 | 0.298 | 0.503 | 0.402 | 0.712 | 0.368 | -0.0233 | -0.0514 | -0.0039 | 0.0634 | -0.0296 | -0.0456 | -0.0054 |
| NC1(C(=O)N[C@@H](CCO)c2ccc(Cl)cc2)CCN(c2ncnc3[nH]ccc23)CC1 [Capivasertib] + CC(C)n1c(=O)n(C)c2cnc3cc(F)c(-c4ccc(OCCCN5CCCCC5)nc4)cc3c21 [AZD1390] (first compound max 10 µM, 7x7, partner max 0.3 µM) | 0.247 | 0.11 | 0.266 | 0.585 | 0.237 | 0.229 | 0.576 | 0.374 | 0.28 | 0.439 | 0.409 | 0.813 | 0.228 | -0.0489 | -0.0251 | -0.0077 | -0.079 | -0.0456 | -0.0165 | -0.0648 |
| NC1(C(=O)N[C@@H](CCO)c2ccc(Cl)cc2)CCN(c2ncnc3[nH]ccc23)CC1 [Capivasertib] + CCN(CCO)CCCOc1ccc2c(Nc3cc(CC(=O)Nc4cccc(F)c4)[nH]n3)ncnc2c1 [AZD2811] (first compound max 10 µM, 7x7, partner max 1 µM) | 0.309 | 0.104 | 0.203 | 0.525 | 0.319 | 0.404 | 0.742 | 0.622 | 0.376 | 0.784 | 0.412 | 0.855 | 0.421 | 0.0026 | -0.0891 | -0.0419 | 0.0214 | -0.0421 | -0.0558 | 0.0001 |
| NC1(C(=O)N[C@@H](CCO)c2ccc(Cl)cc2)CCN(c2ncnc3[nH]ccc23)CC1 [Capivasertib] + COc1nnc2ccc(N3CCC(c4ccc(OCCN5CCN(C)C(=O)[C@H]5C)cc4)CC3)nn12 [AZD5153] (first compound max 10 µM, 7x7, partner max 1 µM) | 0.284 | 0.308 | 0.434 | 0.753 | 0.521 | 0.652 | 0.587 | 0.744 | 0.921 | 0.71 | 0.362 | 0.86 | 0.469 | 0.0101 | 0.0073 | -0.0694 | 0.0177 | -0.0484 | -0.0761 | 0.0374 |
| NC1(C(=O)N[C@@H](CCO)c2ccc(Cl)cc2)CCN(c2ncnc3[nH]ccc23)CC1 [Capivasertib] + C[C@@H]1COCCN1C2=NC(=NC(=C2)C3(CC3)[S@](=N)(=O)C)C4=C5C=CNC5=NC=C4 [AZD6738] (first compound max 10 µM, 7x7, partner max 10 µM) | 0.265 | 0.575 | 0.47 | 0.746 | 0.42 | 0.718 | 0.605 | 0.69 | 0.603 | 0.667 | 0.655 | 0.855 | 0.723 | 0.0117 | -0.027 | -0.0878 | 0.0135 | -0.0768 | -0.0576 | -0.0483 |
| NC1(C(=O)N[C@@H](CCO)c2ccc(Cl)cc2)CCN(c2ncnc3[nH]ccc23)CC1 [Capivasertib] + Cn1cnc2c(F)c(Nc3ccc(Br)cc3Cl)c(C(=O)NOCCO)cc21 [Selumetinib] (first compound max 10 µM, 7x7, partner max 10 µM) | 0.385 | 0.281 | 0.411 | 0.893 | 0.65 | 0.574 | 0.4 | 0.346 | 0.358 | 0.7 | 0.369 | 0.793 | 0.832 | 0.0263 | -0.0145 | 0.0807 | 0.0764 | -0.037 | 0.0584 | -0.0191 |
